Assay results taken from ChEMBL document CHEMBL3588798, “Non-peptide ligand binding to the formyl peptide receptor FPR2--A comparison to peptide ligand binding modes” (Bioorg Med Chem, 2015).

Legend:
[1] = biological target: T1, N-formyl peptide receptor 2 (Homo sapiens, UniProt P25090); assay: Agonist activity against human FPR2 expressed in human HL60 cells by Fluo-4AM dye based intracellular Ca2+ mobilization assay; assay type: functional, cell-based, HL-60
T1 sequence (P25090 whole entry): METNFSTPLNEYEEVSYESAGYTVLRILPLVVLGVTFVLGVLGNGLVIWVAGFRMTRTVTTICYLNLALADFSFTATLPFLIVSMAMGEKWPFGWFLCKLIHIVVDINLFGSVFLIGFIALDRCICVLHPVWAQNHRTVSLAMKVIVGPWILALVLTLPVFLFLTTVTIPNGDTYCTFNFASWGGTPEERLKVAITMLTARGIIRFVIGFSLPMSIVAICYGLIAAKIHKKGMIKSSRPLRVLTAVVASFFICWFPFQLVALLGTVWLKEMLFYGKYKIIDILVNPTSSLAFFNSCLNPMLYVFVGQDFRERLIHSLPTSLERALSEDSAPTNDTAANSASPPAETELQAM

[2] = biological target: T1, N-formyl peptide receptor 2; assay: Agonist activity at FPR2 (unknown origin) by Fluo4 florescence based intracellular Ca2+ mobilization assay; assay type: functional, cell-based
[3] = biological target: T1, N-formyl peptide receptor 2; assay: Allosteric antagonist activity against FPR2 (unknown origin)
[4] = biological target: T1, N-formyl peptide receptor 2; assay: Antagonist activity against human FPR2 expressed in rat RBL-2H3 cells pre-treated for 15 mins before addition of WKYMVm or C1 by intracellular Ca2+ mobilization assay; assay type: functional, cell-based
[5] = biological target: T1, N-formyl peptide receptor 2; assay: Agonist activity at human FPR2 expressed in rat RBL-2H3 cells by intracellular Ca2+ mobilization assay; assay type: functional, cell-based
[6] = biological target: T1, N-formyl peptide receptor 2; assay: Antagonist activity against FPR2 (unknown origin) pre-treated for 5 mins before addition of Wpep by Fluo4 florescence based intracellular Ca2+ mobilization assay; assay type: functional, cell-based

EC50 [1] | SMILES | further results
3000 nM | COc1ccc(CCNC(=O)Nc2ccccc2)cc1 | 
400 nM | COc1ccc(CCNC(=O)Nc2ccc(Cl)cc2)cc1 | 
900 nM | COc1ccc(CCNC(=O)Nc2ccc(F)cc2)cc1 | 
100 nM | COc1ccc(CCNC(=O)Nc2ccc(Br)cc2)cc1 | 
4700 nM | COc1ccc2[nH]c(SCC(=O)Nc3ccc(OC)c(OC)c3)nc2c1 | 
 | CCC[C@H]1CNC(=O)C(=O)N1C[C@@H]1CCCN1C[C@@H](Cc1ccc2ccccc2c1)N1C[C@@H](Cc2ccc(O)cc2)N(CC2CCCCC2)C(=O)C1=O | EC50 [2]: 140 nM
130 nM | CCOC(=O)C1CCN(C(=O)[C@H](Cc2c[nH]c3ccccc23)NC(=O)Nc2ccc(Br)cc2)CC1 | 
140 nM | O=C(Nc1ccc(Br)cc1)N[C@@H](Cc1ccccc1)C(=O)N1CCCC1 | 
40 nM | O=C(Nc1ccc(Br)cc1)N[C@@H](Cc1ccccc1)C(=O)N1CCCCC1 | 
50 nM | O=C(Nc1ccc(Cl)cc1)N[C@@H](Cc1ccccc1)C(=O)N1CCCCC1 | 
300 nM | CSc1ccc(NC(=O)N[C@@H](Cc2ccccc2)C(=O)N2CCCCC2)cc1 | 
4 nM | O=C(Nc1ccc(Br)cc1)N[C@@H](Cc1ccccc1)C(=O)NN1CCCCNC1=O | 
 | CCCCCCCCCCCCCCCC(=O)N[C@@H](CCCCN)C(=O)N(CCC(=O)N[C@@H](CCCCN)C(=O)N(CCC(=O)N[C@@H](CCCCN)C(=O)N(CCC(=O)N[C@@H](CCCCN)C(=O)N(CCC(=O)N[C@@H](CCCCN)C(=O)N(CCC(=O)N[C@@H](CCCCN)C(=O)N(CCC(N)=O)[C@@H](C)c1ccccc1)[C@@H](C)c1ccccc1)[C@@H](C)c1ccccc1)[C@@H](C)c1ccccc1)[C@@H](C)c1ccccc1)[C@@H](C)c1ccccc1 | IC50 [3]: 50 nM
7 nM | CCOC(=O)C1CCCN(C(=O)[C@H](Cc2ccccc2)NC(=O)Nc2ccc(Br)cc2)C1 (stereo partly drawn) | 
160 nM | CCOC(=O)C1CCN(C(=O)[C@H](Cc2ccccc2)NC(=O)Nc2ccc(Br)cc2)CC1 | 
250 nM | O=C(Nc1ccc(Br)cc1)N[C@@H](Cc1ccccc1)C(=O)N1CCc2ccccc21 | 
4030 nM | COc1ccc2[nH]c(SCC(=O)Nc3ccccc3Br)nc2c1 | 
6000 nM | COc1ccc2[nH]c(SCC(=O)Nc3ccc(C(C)=O)cc3)nc2c1 | 
3200 nM | CCc1ccc(NC(=O)CSc2nc3cc(OC)ccc3[nH]2)cc1 | 
7300 nM | COC(=O)Nc1cccc(NC(=O)CSc2nc3cc(OC)ccc3[nH]2)c1 | 
8000 nM | CCOc1ccc2[nH]c(SCC(=O)Nc3ccccc3SC)nc2c1 | 
10000 nM | COc1ccc2[nH]c(SCC(=O)Nc3ccccc3Cl)nc2c1 | 
 | CCCCOc1ccc(C(=O)NN2Cc3ccccc3NC2c2ccc(O)cc2)cc1 (stereo not drawn) | IC50 [4]: 6650 nM
 | CCCCOc1ccc(C(=O)NN2Cc3ccccc3NC2c2ccc(C)cc2)cc1 (stereo not drawn) | IC50 [4]: 170 nM; EC50 [5]: 1480 nM
 | CCCCOc1ccc(C(=O)NN2Cc3ccccc3NC2c2ccc(OC)cc2)cc1 (stereo not drawn) | IC50 [4]: 90 nM; EC50 [5]: 470 nM
 | CC(C)[C@H]1CNC(=O)C(=O)N1C[C@@H]1CCCN1C[C@@H](Cc1ccc2ccccc2c1)N1C[C@@H](Cc2ccc(O)cc2)N(CC2CCCCC2)C(=O)C1=O | IC50 [6]: 80 nM
